These are literature values, as cited in PMC8448535 (Bioorganic & Medicinal Chemistry, 2021).

Structures can show the parent of a compound that is named as a salt.

Data set [1] concerns furin. To be noted: database screening of pre-existing drugs.
The subject of data set [2] is recombinant-human ACE (rhACE). To be noted: pIC50 of IC50 in mol/L.
Data set [3] concerns recombinant-human ACE2 (rhACE2). To be noted: pIC50 of IC50 in mol/L.
Data set [4] deals with SARS-CoV.
Data set [5] relates to cell viability. To be noted: in words.
For data set [6], the system named is influenza virus H3N2. To be noted: H3N2, 10 μM, at 24 h, compared to control.
For data set [7], the system named is TMPRSS2.
Data set [8] concerns ACE2. To be noted: read-out: activity (inhibitory effect against ACE2).

As for `CN(Cc1cnc2nc(N)nc(N)c2n1)c1ccc(C(=O)N[C@@H](CCC(=O)O)C(=O)O)cc1` [methotrexate], the affinity for furin result in data set [1] is given as “good affinity”.

On to “angiotensin-III (RVYIHPF; Angiotensin 3; UniProt P01019 26-32, looked up) [Ang-III]”, for which the “vasopressor efficacy relative to Ang-II” value is 40%.

For the compound `N=C(N)c1ccc(/N=N/Nc2ccc(C(=N)N)cc2)cc1` [diminazene], the affinity for furin entry in data set [1] is recorded as “good affinity”.

`COc1cc(C2Oc3cc([C@H]4Oc5cc(O)cc(O)c5C(=O)[C@@H]4O)ccc3OC2CO)ccc1O` (stereo partly drawn) [silybin]: the affinity for furin entry in data set [1] is recorded as “good affinity”.

On to `CC(C)C[C@@H](N[C@@H](Cc1cncn1Cc1cc(Cl)cc(Cl)c1)C(=O)O)C(=O)O` [MLN-4760-R], for which the pIC50 in data set [2] is given as 4.4 ± 0.3 mol/L; in data set [3], 8.9 ± 0.1 mol/L.

Take `CN(C)C(=O)COC(=O)Cc1ccc(OC(=O)c2ccc(NC(=N)N)cc2)cc1` [camostat mesylate]: the “block of SARS-CoV from entering cells” value in data set [4] is given as 65%.

As for `Nc1nc(N)c2nc(CNc3ccc(C(=O)N[C@@H](CCC(=O)O)C(=O)O)cc3)cnc2n1` [aminopterin], the affinity for furin result in data set [1] is given as “good affinity”.

As for `N=C(N)c1cccc(C[C@H](NS(=O)(=O)c2cccc(-c3ccc(Cl)cc3Cl)c2)C(=O)N2CCC(NC(=O)NC3CCCCC3)CC2)c1` [compound 114], the “effect on cell viability” value in data set [5] is “little to no effect”.

As for `N=C(N)c1cccc(C[C@H](NS(=O)(=O)c2cccc(-c3ccc(Cl)cc3Cl)c2)C(=O)N2CCC(CCN)CC2)c1` [compound 92], the “decrease in virus titres” value in data set [6] is reported as 100 fold. Further, the “effect on cell viability” value in data set [5] is “little to no effect”.

Consider `CC(C)CC(N[C@@H](Cc1cncn1Cc1cc(Cl)cc(Cl)c1)C(=O)O)C(=O)O` (stereo partly drawn) [MLN-4760-S/R], for which the pIC50 in [2] was 4.4 ± 0.2 mol/L; in data set [3] it was 8.5 ± 0.1 mol/L.

On to `CN(Cc1cc(Br)cc(Br)c1N)C1CCCCC1` [bromhexine], for which the “activity towards TMPRSS2” value in data set [7] is listed as “good activity”.

In the case of `NCCNCCN1CC1` [N-(2-aminoethyl)-1-aziridineethanamine], the IC50 in [8] was 57 ± 7 µM.
